For eight compounds, GI50 and TGI results are on record in PubChem BioAssay (NCI).

Test systems include BT-549 breast; CCRF-CEM leukemia; EKVX NSCLC; HCC-2998 colon; HCT-116 colon; HL-60(TB) leukemia; HOP-62 NSCLC; OVCAR-5 ovarian; RXF 393 renal; TK-10 renal.
Common to all, as to test: inhibition of tumour cell growth, NCI panel, 48 h

Several values for one entry are separate records, joined by “and”; a condition that tells them apart may be missing. Identical values can stand only once.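 How tested: cells in 96-well plates exposed to compound for 48 hours at five concentrations. At the GI50, growth is halved. The concentration for full growth arrest is given as TGI.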

As for `ClCc1ccc(-c2ccc(Cn3cnc4c(Cl)ncnc43)cc2)cc1`, the GI50 in the assay with BT-549 breast was 3.11 µM; in the assay on CCRF-CEM leukemia, 2.58 µM; in the assay with EKVX NSCLC, 2.98 µM; with HCC-2998 colon, 1.44 µM; in the assay with HCT-116 colon it was 1.48 µM; in the assay with HL-60(TB) leukemia, 2.18 µM. The GI50 in the assay with HOP-62 NSCLC was 1.84 µM; in the assay with OVCAR-5 ovarian it was 2.31 µM; in the assay on RXF 393 renal it was 1.88 µM; in the assay on TK-10 renal it was 1.65 µM. Further, the TGI in the assay with BT-549 breast was over 100 µM; in the assay on CCRF-CEM leukemia, over 100 µM; in the assay on EKVX NSCLC, 12.9 µM; with HCC-2998 colon it was 2.89 µM; with HCT-116 colon, 2.79 µM; with HL-60(TB) leukemia, 5.59 µM. In addition, the TGI came to 3.63 µM in the assay on HOP-62 NSCLC, 6.01 µM in the assay with OVCAR-5 ovarian, 4.51 µM with RXF 393 renal and 3.58 µM in the assay on TK-10 renal.

For `COC1/C=C/OC2(C)Oc3c(C)c(O)c4c(O)c(c(C=NOC(c5ccccc5)c5ccccc5)c(O)c4c3C2=O)NC(=O)/C(C)=C/C=C/C(C)C(O)C(C)C(O)C(C)C(OC(C)=O)C1C` (stereo unspecified), the GI50 with BT-549 breast was 1.62 µM; in the assay with CCRF-CEM leukemia it was 0.42 µM; in the assay with EKVX NSCLC it was 1.82 µM; with HCC-2998 colon, 0.97 µM; in the assay with HCT-116 colon it was 0.97 µM; in the assay with HL-60(TB) leukemia, 1.84 µM. Moreover, the GI50 in the assay with HOP-62 NSCLC was 0.916 µM; in the assay with OVCAR-5 ovarian it was 0.984 µM; with RXF 393 renal it was 0.943 µM; with TK-10 renal it was 1.14 µM. In addition, the TGI worked out at 5.47 µM in the assay with BT-549 breast; 3.62 µM with CCRF-CEM leukemia; 7.67 µM in the assay with EKVX NSCLC; 1.93 µM in the assay on HCC-2998 colon; 1.86 µM in the assay with HCT-116 colon; 3.83 µM with HL-60(TB) leukemia. For the same compound, the TGI in the assay on HOP-62 NSCLC worked out at 1.85 µM; with OVCAR-5 ovarian, 2.49 µM; with RXF 393 renal, 1.74 µM; in the assay with TK-10 renal, 3.59 µM.

For the compound `[Au+].c1c[n-]cn1.c1ccc([PH+](c2ccccc2)c2ccccc2)cc1`, the GI50 with BT-549 breast was 3.29 µM; with CCRF-CEM leukemia, 1.78 µM; in the assay with EKVX NSCLC, 11 µM; in the assay on HCC-2998 colon it was 13.8 µM; in the assay with HCT-116 colon it was 5.19 µM; in the assay on HL-60(TB) leukemia, 1.66 µM. The GI50 with HOP-62 NSCLC is 6.24 µM; in the assay with OVCAR-5 ovarian it was 20.9 µM; with RXF 393 renal, 1.3 µM; in the assay on TK-10 renal it was 2.66 µM. For the same compound, the TGI is over 100 µM in the assay with BT-549 breast; 17.3 µM in the assay on CCRF-CEM leukemia; 38.2 µM in the assay on EKVX NSCLC; 30.5 µM in the assay with HCC-2998 colon; 14.6 µM with HCT-116 colon; 4.81 µM in the assay with HL-60(TB) leukemia. The TGI in the assay on HOP-62 NSCLC was determined as 43 µM; in the assay with OVCAR-5 ovarian, 42.3 µM; with RXF 393 renal, 2.66 µM; in the assay on TK-10 renal, 6.46 µM.

`Cn1cc(-c2ccc3nnc(C(F)(F)c4ccc5ncccc5c4)n3n2)cn1`: the GI50 is 86.8 µM in the assay with BT-549 breast; 98.7 µM in the assay on CCRF-CEM leukemia; over 83.3 µM in the assay on EKVX NSCLC; over 100 µM in the assay on HCC-2998 colon; 61.9 µM in the assay on HCT-116 colon; over 100 µM in the assay on HL-60(TB) leukemia. In addition, the GI50 in the assay with HOP-62 NSCLC was 56.4 µM; in the assay on OVCAR-5 ovarian, 71.9 µM; in the assay with RXF 393 renal, 25.9 µM; in the assay on TK-10 renal, 32.1 µM. Besides, the TGI with BT-549 breast, in the assay with CCRF-CEM leukemia, in the assay on EKVX NSCLC, with HCC-2998 colon, in the assay on HCT-116 colon and in the assay with HL-60(TB) leukemia was over 100 µM throughout. Also, the TGI in the assay with HOP-62 NSCLC was over 100 µM; in the assay with OVCAR-5 ovarian it was over 100 µM; in the assay with RXF 393 renal it was over 86.6 µM; in the assay with TK-10 renal it was over 100 µM.

On to `CSc1nc(SC)c2c(C)cn(C3OC(C)C(O)C(O)C3O)c2n1` (stereo unspecified), for which the TGI in the assay with BT-549 breast, in the assay on CCRF-CEM leukemia, in the assay on EKVX NSCLC, with HCC-2998 colon, with HCT-116 colon and with HL-60(TB) leukemia was over 100 µM in each case. For the same compound, the TGI with HOP-62 NSCLC, in the assay on OVCAR-5 ovarian, with RXF 393 renal and with TK-10 renal was over 100 µM each time.

For the compound `CCN(CC)CCNC(=O)C(Cl)=C1C(Cl)=C(Cl)C(Cl)=C1Cl`, the GI50 in the assay with BT-549 breast is 12.6 µM; with CCRF-CEM leukemia, 3.15 µM; in the assay on EKVX NSCLC, 6.44 µM; with HCC-2998 colon, 8.08 µM; with HCT-116 colon it was 1.78 µM; with HL-60(TB) leukemia, 3.35 µM. Further, the GI50 in the assay with HOP-62 NSCLC was 3.94 µM; with OVCAR-5 ovarian it was 4.82 µM; in the assay with RXF 393 renal, 3.76 µM; in the assay on TK-10 renal, 3.07 µM. For the same compound, the TGI in the assay with BT-549 breast is 25.3 µM; with CCRF-CEM leukemia it was over 100 µM; with EKVX NSCLC, over 100 µM; in the assay with HCC-2998 colon, 22.8 µM; in the assay on HCT-116 colon it was 4.4 µM; in the assay with HL-60(TB) leukemia, 7.06 µM. Moreover, the TGI in the assay with HOP-62 NSCLC is 15.5 µM; in the assay on OVCAR-5 ovarian, 27.8 µM; in the assay with RXF 393 renal, 15.9 µM; in the assay on TK-10 renal it was over 100 µM.

Turning to `COC1C(C)OC(OC2CC(C)(O)Cc3cc4c(c(O)c32)C(=O)c2c(O)cc3c(c2C4=O)OC2OC3(C)C(O)C(N(C)C)C2O)C(OC)C1(C)OC` (stereo unspecified), the TGI was 0.00655 µM in the assay with BT-549 breast; 0.872 µM and 1.32 µM in the assay on CCRF-CEM leukemia; 1.21 µM and 0.304 µM with EKVX NSCLC; 0.447 µM and 0.178 µM in the assay on HCC-2998 colon; 0.588 µM and 0.535 µM with HL-60(TB) leukemia; 0.921 µM and 0.347 µM in the assay with HOP-62 NSCLC. In the assay with TK-10 renal, this compound displayed a TGI of 0.781 µM. Also, the GI50 in the assay on CCRF-CEM leukemia is 0.0584 µM and 0.0612 µM; with HCC-2998 colon it was 0.0393 µM; in the assay on HCT-116 colon, 0.00273 µM and 0.0132 µM; in the assay with HL-60(TB) leukemia, 0.0711 µM and 0.105 µM; in the assay on RXF 393 renal, 0.0548 µM and 0.0191 µM; in the assay on TK-10 renal it was 0.109 µM.

On to `Cc1nc2cc(Nc3nc(Nc4ccc(F)cc4)nc(N4CCCC4)n3)ccc2n1Cc1ccccc1`, for which the GI50 with BT-549 breast is 1.88 µM; in the assay on CCRF-CEM leukemia it was 2.38 µM; with HCC-2998 colon, 1.93 µM; in the assay with HCT-116 colon, 1.66 µM; in the assay with HL-60(TB) leukemia it was 2.58 µM; in the assay with HOP-62 NSCLC, 1.74 µM. The GI50 in the assay on OVCAR-5 ovarian was 1.72 µM; in the assay on RXF 393 renal it was 1.55 µM; with TK-10 renal, 1.89 µM. Besides, the TGI was found to be 3.5 µM with BT-549 breast; 5.6 µM in the assay with CCRF-CEM leukemia; 3.73 µM in the assay on HCC-2998 colon; 3.09 µM in the assay on HCT-116 colon; 5.3 µM in the assay on HL-60(TB) leukemia; 3.45 µM in the assay with HOP-62 NSCLC. The TGI with OVCAR-5 ovarian came to 3.42 µM; with RXF 393 renal, 3.09 µM; in the assay on TK-10 renal, 3.37 µM.
